Measured values reported in publication PMC8466947, “Polyphenol-Hydroxylating Tyrosinase Activity under Acidic pH Enables Efficient Synthesis of Plant Catechols and Gallols” (Microorganisms, 2021).

Molecular target: T1, BmTy (tyrosinase from Bacillus megaterium) (Priestia megaterium, UniProt B2ZB02)
T1 construct: 6x His-tagged, expressed in E. coli BL21(DE3), Ni-NTA purified
T1 sequence (B2ZB02 1-297): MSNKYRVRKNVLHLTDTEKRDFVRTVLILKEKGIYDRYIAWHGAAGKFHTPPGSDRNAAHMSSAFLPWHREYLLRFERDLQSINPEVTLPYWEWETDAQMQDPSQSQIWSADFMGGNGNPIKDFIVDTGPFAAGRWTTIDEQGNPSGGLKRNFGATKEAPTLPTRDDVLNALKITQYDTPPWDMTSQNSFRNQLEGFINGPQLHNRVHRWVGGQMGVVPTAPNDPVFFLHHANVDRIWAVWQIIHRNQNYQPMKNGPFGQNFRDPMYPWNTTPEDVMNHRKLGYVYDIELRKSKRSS
Experiment: dopachrome assay at […] nm, initial rates, L-tyrosine as substrate (monophenolase activity)
Assay type: biochemical
Conditions: read-out: KI1

## O=c1c(O)c(-c2ccc(O)c(O)c2)oc2cc(O)cc(O)c12 [QUE, quercetin]
  Ki: 33.9 µM
